From patent publication US8598132B2, “Glycosylated indolocarbazoles, method for obtaining same and uses thereof” (Universidad de Oviedo, priority 2008, dated 2013)

Columns and labels:
Type in all cases: cell-based
A549 (lung) = experiment: SRB anti-tumour (growth inhibition) assay, A549; settings: Homo sapiens, 48 h exposure, read-out: GI50 (concentration inhibiting 50% of cell growth)
Description: (§1) The compounds generated were tested against a series of cell lines from tumours. It quantitatively determined the cell growth and the viability, using a colorimetric assay type, using the reaction with sulforhodamine B (SRB), according to the technique described by Faircloth et al. (Journal of Tissue and Culture Methods 1988, 11, 201-205).
(§2) 96-well microtitre plates are inoculated with cells (5×10^3 cells per well) in aliquots of 195 μl of medium, incubating them during 18 h, in a medium without added compound, to allow the cells to adhere to the surface. Next, the compounds to be tested are added, in samples of 5 μl, at a range of concentrations of 10 to 10^−8 μg/ml, dissolved in DMSO/EtOH (0.2% in PS buffer). After 48 h exposure, the anti-tumour effect is measured using the Sulforhodamine B (SRB) technique: the cells are fixed adding 50 μl of cold […] (50%) (w/v) and it is incubated for 60 min. at 4° C. The plates are washed with deionized water and dried. 100 μl of SRB solution (0.4% w/v in 1% acetic acid) to each well and it is incubated during 10 min. at ambient temperature. The non-bound SRB is eliminated, washing with 1% acetic acid. The plates are air dried and the bound colorant is dissolved with Tris buffer. The optical densities are read in an automatic plate spectrophotometer reader at a wavelength of 490 nm.
(§3) For the compounds of formula (III), (IV), (V), (VI), (VII), (VIII), (IX) and the compounds of formula (XII), (XIII), (XIV), (XV), (XVI) and (XVIII).

HT29 (colon) = experiment: SRB anti-tumour (growth inhibition) assay, HT29; settings: Homo sapiens, HT-29, 48 h exposure, read-out: GI50 (concentration inhibiting 50% of cell growth)
Description: as §1, §2, §3

MDA-MB-231 (breast) = experiment: SRB anti-tumour (growth inhibition) assay, MDA-MB-231; settings: Homo sapiens, 48 h exposure, read-out: GI50 (concentration inhibiting 50% of cell growth)
Description: as §1, §2, §3

| SMILES | GI50 (A549 (lung)) [nM] | GI50 (HT29 (colon)) [nM] | GI50 (MDA-MB-231 (breast)) [nM] |
| --- | --- | --- | --- |
| CO[C@H]1[C@H](O)[C@@H](O)[C@H](n2c3c(Cl)cccc3c3c4c(c5c6cccc(Cl)c6[nH]c5c32)C(=O)NC4=O)O[C@@H]1CO [RBM, rebeccamycin, reference compound] | 760 | 1550 | – |
| CN[C@@H]1C[C@H]2O[C@@](C)([C@@H]1OC)n1c3ccccc3c3c4c(c5c6ccccc6n2c5c31)C(=O)NC4 [STP, staurosporine, reference compound] | 8 | 76 | 13 |
